From PubChem BioAssay (NCI)
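These data come from cells grown in 96-well plates and exposed to compound for 48 hours at five concentrations. GI50 is the concentration that inhibits growth by half. TGI denotes the concentration required for complete inhibition of growth.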

Legend:
Experiment in all cases: NCI tumour cell line growth inhibition, 48 h
OVCAR-8 ovarian = system: OVCAR-8 ovarian
COLO 205 colon = system: COLO 205 colon
OVCAR-4 ovarian = system: OVCAR-4 ovarian
HS 578T breast = system: HS 578T breast
PC-3 prostate = system: PC-3 prostate
SNB-75 CNS = system: SNB-75 CNS
SF-295 CNS = system: SF-295 CNS
MDA-MB-231 breast = system: MDA-MB-231 breast
CAKI-1 renal = system: CAKI-1 renal

| Structure (SMILES) | TGI (OVCAR-8 ovarian) [µM] | TGI (COLO 205 colon) [µM] | TGI (OVCAR-4 ovarian) [µM] | TGI (HS 578T breast) [µM] | TGI (PC-3 prostate) [µM] | TGI (SNB-75 CNS) [µM] | TGI (SF-295 CNS) [µM] | TGI (MDA-MB-231 breast) [µM] | TGI (CAKI-1 renal) [µM] | GI50 (OVCAR-8 ovarian) [µM] | GI50 (COLO 205 colon) [µM] | GI50 (OVCAR-4 ovarian) [µM] | GI50 (HS 578T breast) [µM] | GI50 (PC-3 prostate) [µM] | GI50 (SNB-75 CNS) [µM] | GI50 (SF-295 CNS) [µM] | GI50 (CAKI-1 renal) [µM] |
| --- | --- | --- | --- | --- | --- | --- | --- | --- | --- | --- | --- | --- | --- | --- | --- | --- | --- |
| O=S1(=O)c2ccccc2NC(=S)CC1c1ccccc1 (stereo unspecified) | > 100 | > 100 | > 100 | > 100 | > 100 | > 100 | 79.8 | > 100 | > 100 | – | – | – | – | – | – | – | – |
| Cc1cc(C)n(CN(Cn2nc(C)cc2C)C2CCCCC2)n1 | 58.4 | 32 | 67.9 | > 100 | 60 | 76.8 | > 100 | 64.2 | 97.7 | – | – | – | – | – | – | – | – |
| COc1ccc2nc3cc(Cl)ccc3c(NCCNCCCNC(=O)c3cc(-c4ccccc4)nc4ccccc34)c2c1 | > 100 | > 100 | > 100 | > 100 | > 100 | > 100 | > 100 | > 100 | > 100 | – | – | – | – | – | – | – | – |
| COC(=O)C1(Cc2ccccc2)Cc2ccccc2C1 | > 100 | 35.8 | > 100 | > 100 | > 100 | 96.2 | 99.2 | > 100 | 65.4 | – | – | – | – | – | – | – | – |
| CCc1ccc2c(c1)CC1(C2)Cc2cc3c(cc2C1)C(=O)CC3 (stereo unspecified) | 64.9 | 17.5 | 65.4 | > 100 | 64.1 | – | 65.3 | 87.7 | – | – | – | – | – | – | – | – | – |
| Cn1c2ccccc2c2c3c(c4c5ccccc5n(C)c4c21)C(=O)c1ccccc1C3=O | > 100 | > 100 | > 100 | – | > 100 | > 100 | > 100 | 79.1 | > 100 | – | – | – | – | – | – | – | – |
| CC(C)CNC(=O)Cn1c(-c2ccccc2)cc2ccccc21 | > 100 | > 100 | > 100 | > 100 | > 100 | > 100 | > 100 | – | > 100 | – | – | – | – | – | – | – | – |
| CCCCOCn1c(=O)[nH]c(=O)c2cc(Br)ccc21 | 88.6 | > 100 | > 100 | – | > 100 | > 100 | > 100 | > 100 | 46.9 | – | – | – | – | – | – | – | – |
| O=C(CNc1ccc(Cl)cc1Cl)NC1C=Cc2ccc(S(=O)(=O)Nc3ccc(Cl)cc3Cl)cc2C1=O (stereo unspecified) | > 100 | > 100 | – | > 100 | > 100 | > 100 | > 100 | > 100 | > 100 | – | – | – | – | – | – | – | – |
| O=c1[nH]nc(Cc2ccccc2)n1-n1cnnc1 | > 100 | > 100 | > 100 | – | > 100 | > 100 | > 100 | > 100 | – | – | – | – | – | – | – | – | – |
| COc1ccc(/C=C2\N=C(c3ccccc3)N(C3Nc4cc5c(cc4S3)NC(N3C(=O)/C(=C/c4ccc(OC)cc4)N=C3c3ccccc3)S5)C2=O)cc1 (stereo unspecified) | > 100 | – | > 100 | > 100 | > 100 | 94.2 | > 100 | > 100 | > 100 | – | – | – | – | – | – | – | – |
| CC(=O)O[C@H]1C(=O)[C@@]2(C)[C@H]([C@H](OC(=O)c3ccccc3)[C@]3(O)C[C@H](OC(=O)[C@H](O)[C@@H](NC(=O)CC(C)(C)C)c4ccccc4)C(C)=C1C3(C)C)C1(OC(C)=O)CO[C@@H]1C[C@@H]2O (stereo partly specified) | > 5.8 | 0.012 | > 10 | 0.00653 | > 10 | 0.0154 | – | > 10 | > 10 | – | – | – | – | – | – | – | – |
| CCc1c(C)c(C#N)c(=S)n(C2OC(CO)C(O)C(O)C2O)c1C (stereo unspecified) | > 100 | > 100 | > 100 | – | > 100 | > 100 | > 100 | > 100 | – | – | – | – | – | – | – | – | – |
| CSC1=NS(=O)(=O)c2cc(C(=O)NN(C)C(=O)c3cc4c(cc3Cl)SC(SC)=NS4(=O)=O)c(Cl)cc2S1 | > 10 | > 10 | > 10 | > 10 | > 10 | > 10 | > 10 | – | > 10 | – | – | – | – | – | – | – | – |
| CC(C)OP(=O)(OC(C)C)C(C(C)C)N(C)/C(F)=N/C(F)(F)F (stereo unspecified) | > 100 | > 100 | – | > 100 | > 100 | > 100 | > 100 | > 100 | > 100 | – | – | – | – | – | – | – | – |
| CN(C)CCNc1ncnc2nc(-c3ccc4ccccc4c3)[nH]c12 | > 100 | > 100 | > 100 | > 100 | > 100 | – | > 100 | > 100 | > 100 | – | – | – | – | – | – | – | – |
| COc1cc(S(=O)(=O)Nc2ccc(C3=NNC(c4ccccc4)C3)cc2)ccc1F (stereo unspecified) | > 100 | > 100 | > 100 | 77.8 | > 100 | > 100 | > 100 | – | > 100 | 68.1 | 51.4 | 50.6 | 16.7 | 29.8 | 23.9 | 28.5 | 37.3 |
| Cc1ccc(N=Nc2c(C)c(C#N)c(=S)n(C3OC(CO)C(O)C(O)C3O)c2-c2ccccc2)cc1 (stereo unspecified) | – | 57.4 | > 100 | 60.4 | 55.6 | 55.2 | 69.5 | > 100 | 92.6 | – | – | – | – | – | – | – | – |
| O=C(NCc1ccc(Cl)cc1)c1cc2sccc2nc1C(F)(F)F | 72.1 | > 100 | 44.8 | 47.6 | > 100 | – | > 100 | > 100 | > 100 | – | – | – | – | – | – | – | – |
| Cc1c(-c2ccccc2)c(C#N)c2nnc(C(N)=O)c(N)n12 | > 100 | > 100 | > 100 | > 100 | > 100 | – | > 100 | > 100 | > 100 | – | – | – | – | – | – | – | – |
| NNC(=S)N1CCN(C(=S)NN)CC1 | – | > 100 | > 100 | > 100 | > 100 | > 100 | > 100 | > 100 | > 100 | – | – | – | – | – | – | – | – |
| Cn1nc(S(N)(=O)=O)s/c1=N/C(N)=S | > 100 | > 100 | > 100 | > 100 | – | – | > 100 | > 100 | > 100 | – | – | – | – | – | – | – | – |
| COc1cc(/C=C2\CCC(C)C3=C2NC(=S)NC3c2cc(OC)c(OC)c(OC)c2)cc(OC)c1OC (stereo unspecified) | > 100 | – | > 100 | > 100 | > 100 | 66.3 | – | > 100 | > 100 | – | – | – | – | – | – | – | – |
